The structures appear in SMILES notation.

The Kd is the free concentration of one partner at which half of the binding sites on the other are occupied at equilibrium, for simple one-to-one binding.

Test [1] addresses human serum albumin (HSA) (Homo sapiens, UniProt P02768). Kind of test: ultrafast affinity extraction, two-dimensional HSA microcolumns, UV […] nm. The test is classed as binding.
Test [2] addresses T1, sex hormone binding globulin (SHBG) (Homo sapiens, UniProt P04278).
T1 sequence (P04278 30-402): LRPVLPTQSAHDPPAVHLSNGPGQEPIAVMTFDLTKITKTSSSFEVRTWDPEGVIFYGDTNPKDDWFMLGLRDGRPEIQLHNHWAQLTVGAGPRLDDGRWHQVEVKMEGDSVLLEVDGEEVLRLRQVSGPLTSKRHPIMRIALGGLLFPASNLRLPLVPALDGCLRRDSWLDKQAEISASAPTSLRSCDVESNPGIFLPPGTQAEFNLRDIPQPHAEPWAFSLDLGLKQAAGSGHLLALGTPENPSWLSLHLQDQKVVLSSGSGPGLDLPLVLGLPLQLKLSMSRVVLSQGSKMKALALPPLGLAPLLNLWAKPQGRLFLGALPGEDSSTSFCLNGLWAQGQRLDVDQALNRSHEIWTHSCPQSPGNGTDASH

Chain of human serum albumin (HSA) (P02768 25-609): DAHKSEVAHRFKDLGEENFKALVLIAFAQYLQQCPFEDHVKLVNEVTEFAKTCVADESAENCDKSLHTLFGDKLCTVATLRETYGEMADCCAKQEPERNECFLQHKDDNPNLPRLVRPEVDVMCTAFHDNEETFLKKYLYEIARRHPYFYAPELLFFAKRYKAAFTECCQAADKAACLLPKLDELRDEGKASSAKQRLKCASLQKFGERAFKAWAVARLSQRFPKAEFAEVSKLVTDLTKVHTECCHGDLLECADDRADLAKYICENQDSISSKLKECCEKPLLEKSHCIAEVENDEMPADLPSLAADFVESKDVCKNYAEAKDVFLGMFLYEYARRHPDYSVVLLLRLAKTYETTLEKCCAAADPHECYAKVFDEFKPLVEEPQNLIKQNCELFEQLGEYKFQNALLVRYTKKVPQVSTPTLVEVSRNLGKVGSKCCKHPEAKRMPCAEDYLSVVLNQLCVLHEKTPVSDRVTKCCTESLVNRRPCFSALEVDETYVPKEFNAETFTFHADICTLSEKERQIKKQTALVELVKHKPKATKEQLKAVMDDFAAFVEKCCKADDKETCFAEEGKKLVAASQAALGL

In the case of `C[C@]12CC[C@H]3[C@@H](CCC4=CC(=O)CC[C@@]43C)[C@@H]1CC[C@@H]2O` [testosterone], the values for the Kd in test [1] and in test [2] were 31.2 µM and 0.000909 µM, respectively.
